Measured values: ChEMBL document CHEMBL4316596, “Antimicrobial Peptides with High Proteolytic Resistance for Combating Gram-Negative Bacteria” (J Med Chem, 2019)
In brackets after ≈: the same amount, converted by molar mass.

Tests used:
Pseudomonas aeruginosa [1] = test: Bactericidal activity against Pseudomonas aeruginosa ATCC 27853 incubated for 4 hrs followed by culture spread on agar plates and cultured overnight; type: functional; details: ATCC 27853, 4 h, read-out: MBC>99.9
Pseudomonas aeruginosa [2] = test: Bactericidal activity against Pseudomonas aeruginosa PAO1 incubated for 4 hrs followed by culture spread on agar plates and cultured overnight; type: functional; details: PAO1, 4 h, read-out: MBC>99.9
Acinetobacter baumannii = test: Bactericidal activity against Acinetobacter baumannii incubated for 4 hrs followed by culture spread on agar plates and cultured overnight; type: functional; details: read-out: MBC>99.9
Escherichia coli [3] = test: Bactericidal activity against Escherichia coli K99 incubated for 4 hrs followed by culture spread on agar plates and cultured overnight; type: functional; details: K99, 4 h, read-out: MBC>99.9
Escherichia coli [4] = test: Bactericidal activity against Escherichia coli ATCC 25922 incubated for 4 hrs followed by culture spread on agar plates and cultured overnight in presence of 2 mg/ml chymotrypsin; type: functional; details: ATCC 25922, 4 h, read-out: MBC>99.9
Escherichia coli [5] = test: Antimicrobial activity against Escherichia coli K99 after 24 hrs by NCCLS-protocol based assay; type: functional; details: K99, 24 h
Escherichia coli [6] = test: Antibacterial activity against Escherichia coli ATCC 25922 infected in ICR mouse assessed as log reduction in bacterial cells in liver at 5 mg/kg, ip administered at 5 mg/kg, ip dosed at 0.5, 2, 4 and 8 hrs post-infection; type: functional
Escherichia coli [7] = test: Bactericidal activity against Escherichia coli ATCC 25922 incubated for 4 hrs followed by culture spread on agar plates and cultured overnight in presence of NaCl; type: functional; details: ATCC 25922, 4 h, read-out: MBC>99.9
Escherichia coli [8] = test: Bactericidal activity against Escherichia coli ATCC 25922 incubated for 4 hrs followed by culture spread on agar plates and cultured overnight in presence of 4 mg/ml chymotrypsin; type: functional; details: ATCC 25922, 4 h, read-out: MBC>99.9
Escherichia coli [9] = test: Antimicrobial activity against Escherichia coli ATCC 25922 after 24 hrs by NCCLS-protocol based assay; type: functional; details: ATCC 25922, 24 h
Pseudomonas aeruginosa [10] = test: Antimicrobial activity against Pseudomonas aeruginosa PAO1 after 24 hrs by NCCLS-protocol based assay; type: functional; details: PAO1, 24 h
Escherichia coli [11] = test: Antimicrobial activity against Escherichia coli 078 after 24 hrs by NCCLS-protocol based assay; type: functional; details: Escherichia coli, 078, 24 h
Pseudomonas aeruginosa [12] = test: Antimicrobial activity against Pseudomonas aeruginosa ATCC 27853 after 24 hrs by NCCLS-protocol based assay; type: functional; details: ATCC 27853, 24 h
[13] = Selectivity ratio of IC50 for HEK293T cells to geometric mean of the peptide MBC for bacteria
Escherichia coli [14] = test: Antibacterial activity against Escherichia coli ATCC 25922 infected in ICR mouse assessed as mouse survival at 5 mg/kg, ip dosed at 0.5, 2, 4 and 8 hrs post-infection; type: functional; details: ATCC 25922, ip
HEK-293T = test: Cytotoxicity against HEK293T cells assessed as cell death after 18 to 24 hrs by MTT assay; type: cell-based; details: Homo sapiens
Escherichia coli [15] = test: Antimicrobial activity against Escherichia coli K88 after 24 hrs by NCCLS-protocol based assay; type: functional; details: K88, 24 h
[16] = Selectivity ratio of IC50 for mouse RAW264.7 cells to geometric mean of the peptide MBC for bacteria
Pseudomonas aeruginosa [17] = test: Antimicrobial activity against Pseudomonas aeruginosa CICC 21630 clinical isolates after 24 hrs by NCCLS-protocol based assay; type: functional; details: CICC 21630, 24 h
Pseudomonas aeruginosa [18] = test: Antimicrobial activity against Pseudomonas aeruginosa 26305 clinical isolates after 24 hrs by NCCLS-protocol based assay; type: functional; details: Pseudomonas aeruginosa, 26305, 24 h
Escherichia coli [19] = test: Bactericidal activity against Escherichia coli ATCC 25922 incubated for 4 hrs followed by culture spread on agar plates and cultured overnight in presence of 0.125 mg/ml chymotrypsin; type: functional; details: ATCC 25922, 4 h, read-out: MBC>99.9
Salmonella typhimurium = test: Antimicrobial activity against Salmonella typhimurium C7731 after 24 hrs by NCCLS-protocol based assay; type: functional, Salmonella enterica subsp. enterica serovar Typhimurium; details: Salmonella enterica, C7731, 24 h
Escherichia coli [20] = test: Bactericidal activity against Escherichia coli ATCC 25922 incubated for 4 hrs followed by culture spread on agar plates and cultured overnight; type: functional; details: ATCC 25922, 4 h, read-out: MBC>99.9
Pseudomonas aeruginosa [21] = test: Antimicrobial activity against Pseudomonas aeruginosa CICC 21625 clinical isolates after 24 hrs by NCCLS-protocol based assay; type: functional; details: CICC 21625, 24 h
Escherichia coli [22] = test: Bactericidal activity against Escherichia coli ATCC 25922 incubated for 4 hrs followed by culture spread on agar plates and cultured overnight in presence of CaCl2; type: functional; details: ATCC 25922, 4 h, read-out: MBC>99.9
Pseudomonas aeruginosa [23] = test: Antimicrobial activity against Pseudomonas aeruginosa 25349 clinical isolates after 24 hrs by NCCLS-protocol based assay; type: functional; details: Pseudomonas aeruginosa, 25349, 24 h
Pseudomonas aeruginosa [24] = test: Bactericidal activity against Pseudomonas aeruginosa 26305 clinical isolates incubated for 4 hrs followed by culture spread on agar plates and cultured overnight; type: functional; details: Pseudomonas aeruginosa, 26305, 4 h; read-out: MBC>99.9
Pseudomonas aeruginosa [25] = test: Bactericidal activity against Pseudomonas aeruginosa CICC 21625 clinical isolates incubated for 4 hrs followed by culture spread on agar plates and cultured overnight; type: functional; details: CICC 21625, 4 h, read-out: MBC>99.9
Escherichia coli [26] = test: Bactericidal activity against Escherichia coli ATCC 25922 incubated for 4 hrs followed by culture spread on agar plates and cultured overnight in presence of 0.25 mg/ml trypsin; type: functional; details: ATCC 25922, 4 h, read-out: MBC>99.9
Escherichia coli [27] = test: Bactericidal activity against Escherichia coli ATCC 25922 incubated for 4 hrs followed by culture spread on agar plates and cultured overnight in presence of FeCl3; type: functional; details: ATCC 25922, 4 h, read-out: MBC>99.9
Escherichia coli [28] = test: Antimicrobial activity against Escherichia coli UB1005 after 24 hrs by NCCLS-protocol based assay; type: functional; details: UB1005, 24 h
Escherichia coli [29] = test: Bactericidal activity against Escherichia coli K88 incubated for 4 hrs followed by culture spread on agar plates and cultured overnight; type: functional; details: K88, 4 h, read-out: MBC>99.9
Escherichia coli [30] = test: Bactericidal activity against Escherichia coli ATCC 25922 incubated for 4 hrs followed by culture spread on agar plates and cultured overnight in presence of 4 mg/ml trypsin; type: functional; details: ATCC 25922, 4 h, read-out: MBC>99.9
[31] = Stability of the compound assessed as pepsin (unknown origin)-mediated compound hydrolysis after 8 hrs by SDS-PAGE analysis; type: ADME; details: human
Escherichia coli [32] = test: Bactericidal activity against Escherichia coli ATCC 25922 incubated for 4 hrs followed by culture spread on agar plates and cultured overnight in presence of 1 mg/ml chymotrypsin; type: functional; details: ATCC 25922, 4 h, read-out: MBC>99.9
Escherichia coli [33] = test: Bactericidal activity against Escherichia coli ATCC 25922 incubated for 4 hrs followed by culture spread on agar plates and cultured overnight in presence of 0.5 mg/ml chymotrypsin; type: functional; details: ATCC 25922, 4 h, read-out: MBC>99.9
Escherichia coli [34] = test: Bactericidal activity against Escherichia coli ATCC 25922 incubated for 4 hrs followed by culture spread on agar plates and cultured overnight in presence of 2 mg/ml trypsin; type: functional; details: ATCC 25922, 4 h, read-out: MBC>99.9
Escherichia coli [35] = test: Bactericidal activity against Escherichia coli ATCC 25922 incubated for 4 hrs followed by culture spread on agar plates and cultured overnight in presence of MgCl2; type: functional; details: ATCC 25922, 4 h, read-out: MBC>99.9
Escherichia coli [36] = test: Bactericidal activity against Escherichia coli ATCC 25922 incubated for 4 hrs followed by culture spread on agar plates and cultured overnight in presence of 0.125 mg/ml trypsin; type: functional; details: ATCC 25922, 4 h, read-out: MBC>99.9
[37] = Selectivity ratio of IC50 for pig IPECJ2 cells to geometric mean of the peptide MBC for bacteria

Compound | MBC (Pseudomonas aeruginosa [1]) [µM] | MBC (Pseudomonas aeruginosa [2]) [µM] | MBC (Acinetobacter baumannii) [µM] | MBC (Escherichia coli [3]) [µM] | MBC (Escherichia coli [4]) [µM] | MIC95 (Escherichia coli [5]) [µM] | MBC (Escherichia coli [7]) [µM] | MBC (Escherichia coli [8]) [µM] | MIC95 (Escherichia coli [9]) [µM] | MIC95 (Pseudomonas aeruginosa [10]) [µM] | MIC95 (Escherichia coli [11]) [µM] | MIC95 (Pseudomonas aeruginosa [12]) [µM] | Ratio [13] | IC50 (HEK-293T) [µM] | MIC95 (Escherichia coli [15]) [µM] | Ratio [16] | MIC95 (Pseudomonas aeruginosa [17]) [µM] | MIC95 (Pseudomonas aeruginosa [18]) [µM] | MBC (Escherichia coli [19]) [µM] | MIC95 (Salmonella typhimurium) [µM] | also measured
H-LKPLLKPLLKPLLKPLLKPLLKPLLKPL-NH2 | 2 | 1 | 1 | 2 | 1 | 1 | 8 | > 64 | 0.5 | 1 | 2 | 2 | 17.49 | 47.4 | 0.5 | 0.58 | 2 | 4 | 1 | 2 | log(activity) (Escherichia coli [6]): 1; survival at 5 mg/kg (Escherichia coli [14]): 37.5%; MBC (Escherichia coli [20]): 1 µM; MIC95 (Pseudomonas aeruginosa [21]): 8 µM; MBC (Escherichia coli [22]): > 128 µM; MIC95 (Pseudomonas aeruginosa [23]): 8 µM; MBC (Pseudomonas aeruginosa [24]): 16 µM; MBC (Pseudomonas aeruginosa [25]): 16 µM; MBC (Escherichia coli [26]): 1 µM; MBC (Escherichia coli [27]): 2 µM; MIC95 (Escherichia coli [28]): 1 µM; MBC (Escherichia coli [29]): 1 µM; MBC (Escherichia coli [30]): 1 µM; Stability [31]: Unstable; MBC (Escherichia coli [32]): 1 µM; MBC (Escherichia coli [33]): 1 µM; MBC (Escherichia coli [34]): 1 µM; MBC (Escherichia coli [35]): 2 µM; MBC (Escherichia coli [36]): 1 µM; Ratio [37]: 9.01
CC[C@H](C)[C@H](NC(=O)CN)C(=O)NCC(=O)N[C@@H](C)C(=O)N[C@H](C(=O)N[C@@H](CC(C)C)C(=O)N[C@@H](CCCCN)C(=O)N[C@H](C(=O)N[C@@H](CC(C)C)C(=O)N[C@H](C(=O)N[C@H](C(=O)NCC(=O)N[C@@H](CC(C)C)C(=O)N1CCC[C@H]1C(=O)N[C@@H](C)C(=O)N[C@@H](CC(C)C)C(=O)N[C@H](C(=O)N[C@@H](CO)C(=O)N[C@@H](Cc1c[nH]c2ccccc12)C(=O)N[C@H](C(=O)N[C@@H](CCCCN)C(=O)N[C@@H](CCCNC(=N)N)C(=O)N[C@@H](CCCCN)C(=O)N[C@@H](CCCNC(=N)N)C(=O)N[C@@H](CCC(N)=O)C(=O)N[C@@H](CCC(N)=O)C(N)=O)[C@@H](C)CC)[C@@H](C)CC)[C@@H](C)O)[C@@H](C)O)C(C)C)C(C)C [MELITTIN] | 4 (≈ 11.4 µg/mL) | 2 (≈ 5.69 µg/mL) | 1 (≈ 2.85 µg/mL) | 2 (≈ 5.69 µg/mL) | > 64 | 2 (≈ 5.69 µg/mL) | 4 | > 64 | 2 (≈ 5.69 µg/mL) | 2 (≈ 5.69 µg/mL) | 0.5 (≈ 1.42 µg/mL) | 2 (≈ 5.69 µg/mL) | 1.14 | 2.48 | 1 (≈ 2.85 µg/mL) | 0.96 | 4 (≈ 11.4 µg/mL) | 2 (≈ 5.69 µg/mL) | 2 | 1 (≈ 2.85 µg/mL) | MBC (Escherichia coli [20]): 2 µM (≈ 5.69 µg/mL); MIC95 (Pseudomonas aeruginosa [21]): 4 µM (≈ 11.4 µg/mL); MBC (Escherichia coli [22]): 8 µM; MIC95 (Pseudomonas aeruginosa [23]): 2 µM (≈ 5.69 µg/mL); MBC (Pseudomonas aeruginosa [24]): 2 µM (≈ 5.69 µg/mL); MBC (Pseudomonas aeruginosa [25]): 4 µM (≈ 11.4 µg/mL); MBC (Escherichia coli [26]): 2 µM; MBC (Escherichia coli [27]): 2 µM; MIC95 (Escherichia coli [28]): 2 µM (≈ 5.69 µg/mL); MBC (Escherichia coli [29]): 1 µM (≈ 2.85 µg/mL); MBC (Escherichia coli [30]): > 64 µM; MBC (Escherichia coli [32]): > 64 µM; MBC (Escherichia coli [33]): > 64 µM; MBC (Escherichia coli [34]): > 64 µM; MBC (Escherichia coli [35]): 4 µM; MBC (Escherichia coli [36]): 2 µM; Ratio [37]: 1.31
H-IKPIIKPIIKPIIKPIIKPIIKPIIKPI-NH2 | > 64 | > 64 | 2 | 4 | 16 | 2 | > 128 | 16 | 8 | > 64 | 16 | > 64 | 162.49 | 5920 | 2 | 75.44 | > 64 | > 64 | 16 | 64 | MBC (Escherichia coli [20]): 16 µM; MIC95 (Pseudomonas aeruginosa [21]): > 64 µM; MBC (Escherichia coli [22]): > 128 µM; MIC95 (Pseudomonas aeruginosa [23]): > 64 µM; MBC (Pseudomonas aeruginosa [24]): > 64 µM; MBC (Pseudomonas aeruginosa [25]): > 64 µM; MBC (Escherichia coli [26]): 16 µM; MBC (Escherichia coli [27]): 64 µM; MIC95 (Escherichia coli [28]): 4 µM; MBC (Escherichia coli [29]): 2 µM; MBC (Escherichia coli [30]): 16 µM; Stability [31]: Unstable; MBC (Escherichia coli [32]): 16 µM; MBC (Escherichia coli [33]): 16 µM; MBC (Escherichia coli [34]): 16 µM; MBC (Escherichia coli [35]): 64 µM; MBC (Escherichia coli [36]): 16 µM; Ratio [37]: 9.46
